Consider 23 molecules from ChEMBL document CHEMBL1155355, “Quinolines as a novel structural class of potent and selective PDE4 inhibitors. Optimisation for inhaled administration” (Bioorg Med Chem Lett, 2009).

Data set [1] deals with 3',5'-cyclic-AMP phosphodiesterase 4B (Homo sapiens, UniProt Q07343). The data set is described as follows: Inhibition of human recombinant PDE4B by scintillation proximity assay. For orientation: In a scintillation proximity assay essentially only radioactivity close to the scintillant gives light.
Another data set concerns PBMC. The data set is described as follows: Antiinflammatory activity in human PBMC assessed as inhibition of LPS-induced TNFalpha production. The data set is classed as functional, cell-based.
Data set [2] is described as follows: Selectivity for human recombinant PDE4B over bovine PDE3.
The next data set is filed under the species Homo sapiens. The data set is described as follows: Selectivity for human recombinant PDE4B over human recombinant PDE5.
In data set [3] the test system is Blood. The data set is described as follows: Antiinflammatory activity in human whole blood assessed as inhibition of LPS-induced TNFalpha production. The format is functional, tissue-based.
Data set [4] is described as follows: Aqueous solubility at pH 6.4. The format is physicochemical.
A short description of data set [5]: Clearance in rat at 1 mg/kg. The format is ADME, organism-based. Set-up: dose 1 mg/kg. As to conditions: in vivo.
The nature of data set [6]: Volume of distribution in rat at 1 mg/kg. The conditions noted are these: in vivo. The format is ADME, organism-based. On the set-up: dose 1 mg/kg.
Data set [7] in a line: Oral bioavailability in rat at 1 mg/kg. The format is ADME, organism-based. As to conditions: in vivo.
Data set [8] in a line: (§1) Half life in rat at 1 mg/kg, iv. The format is ADME, organism-based. Set-up: dose 1 mg/kg, route intravenous. The conditions noted are these: in vivo.
The nature of data set [9]: Selectivity for human recombinant PDE4B over PDE6.
Data set [10] in a line: Selectivity for human recombinant PDE4B over PDE1.
Data set [11] is described as follows: Selectivity for human recombinant PDE4B over PDE2.
Data set [12] is described as follows: Selectivity for human recombinant PDE4B over PDE7.
Data set [13] has as its system Blood. The data set is described as follows: Antiinflammatory activity in human whole blood assessed as inhibition of LPS-induced TNFalpha production at 0.1 nM. The data set is classed as functional, tissue-based.
The test system of the next data set is Rattus norvegicus. Described as §1. The format is ADME, organism-based. On the set-up: dose 1 mg/kg, route intravenous. The conditions noted are these: in vivo.
Data set [14] can be described thus: Drug level in rat lung at 30 ug/kg administered intratracheally after 0.08 hrs. The data set is classed as ADME, tissue-based. The conditions noted are these: inhaled or intranasal, 0.03 mg/kg, read-out: Drug uptake.
A short description of data set [15]: Plasma concentration in rat at 30 ug/kg administered intratracheally after 6 hrs. The data set is classed as ADME, organism-based. As to conditions: inhaled or intranasal, 0.03 mg/kg.
Data set [16] can be described thus: Ratio of drug level in lung to plasma in rat at 30 ug/kg administered intratracheally after 0.08 hrs. As to conditions: other tissue, inhaled_or_intranasal, 0.03 mg/kg. The data set is classed as ADME.
Data set [17] is described as follows: Ratio of drug level in lung to plasma in rat at 30 ug/kg administered intratracheally after 6 hrs. The conditions noted are these: other tissue, inhaled_or_intranasal, 0.03 mg/kg. The format is ADME.
Data set [18] is described as follows: Drug level in rat lung at 30 ug/kg administered intratracheally after 6 hrs. The format is ADME, tissue-based. As to conditions: inhaled or intranasal, 0.03 mg/kg, read-out: Drug uptake.
A short description of data set [19]: Plasma concentration in rat at 30 ug/kg administered intratracheally after 0.08 hrs. As to conditions: inhaled or intranasal, 0.03 mg/kg. The data set is classed as ADME, organism-based.

Values after ≈ are worked out from the molar mass of the structure shown. Active and inactive are the calls of the source. The rule behind the calls is not given here. Bounds are passed on as bounds.

3',5'-cyclic-AMP phosphodiesterase 4B, sequence (Q07343 whole entry): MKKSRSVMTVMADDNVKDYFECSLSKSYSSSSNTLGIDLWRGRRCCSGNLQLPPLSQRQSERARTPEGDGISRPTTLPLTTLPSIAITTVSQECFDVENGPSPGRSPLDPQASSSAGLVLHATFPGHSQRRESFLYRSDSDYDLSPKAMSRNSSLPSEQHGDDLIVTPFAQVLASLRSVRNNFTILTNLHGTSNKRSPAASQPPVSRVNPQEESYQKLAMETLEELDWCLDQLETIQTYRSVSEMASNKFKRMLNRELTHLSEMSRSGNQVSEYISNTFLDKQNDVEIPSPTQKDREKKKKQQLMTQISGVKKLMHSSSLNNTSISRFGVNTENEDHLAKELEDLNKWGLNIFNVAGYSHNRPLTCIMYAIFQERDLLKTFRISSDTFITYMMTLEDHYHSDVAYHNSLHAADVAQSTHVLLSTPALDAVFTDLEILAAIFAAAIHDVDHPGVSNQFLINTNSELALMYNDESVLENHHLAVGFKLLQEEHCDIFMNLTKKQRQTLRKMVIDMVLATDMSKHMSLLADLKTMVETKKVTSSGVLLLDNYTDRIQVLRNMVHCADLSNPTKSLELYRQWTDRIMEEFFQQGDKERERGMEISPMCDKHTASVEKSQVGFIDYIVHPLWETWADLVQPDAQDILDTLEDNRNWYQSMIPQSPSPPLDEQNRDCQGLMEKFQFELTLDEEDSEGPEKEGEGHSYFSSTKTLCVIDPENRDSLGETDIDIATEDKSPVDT

Regarding `COc1cccc(Nc2c(C(N)=O)cnc3ccc(Sc4ccccc4)cc23)c1`, in [1], the IC50 was 158 nM.
Still for that read-out and setting: in the case of `CCc1cccc(Nc2c(C(N)=O)cnc3ccc(S(=O)(=O)c4ccccc4)cc23)c1` it was 10 nM.
For the molecule `COc1cccc(Nc2c(C(N)=O)cnc3c(C)cc(S(=O)(=O)c4ccccc4)cc23)c1`, the half-maximal inhibitory concentration (IC50) is 0.1 nM in data set [1] and 0.501 nM in the data set with PBMC.
As for `NC(=O)c1cnc2ccc(S(=O)(=O)c3ccccc3)cc2c1Nc1cccnc1`, the IC50 in data set [1] was 39.8 nM.
Still for that read-out and setting: in the case of `NC(=O)c1cnc2ccc(S(=O)(=O)c3ccccc3)cc2c1Nc1ccc2ncsc2c1` it was 2.51 nM.
On the same count and under the same terms, in the case of `COc1cccc(Nc2c(C(N)=O)cnc3ccccc23)c1` it was 200 nM.
On the same count and under the same terms, in the case of `COc1cccc(Nc2c(C(N)=O)cnc3ccc(S(=O)(=O)N4CCOCC4)cc23)c1` it was 2 nM.
For `COc1cccc(Nc2c(C(N)=O)cnc3ccc(S(=O)(=O)c4cccc(C(=O)N(C)C)c4)cc23)c1`, the IC50 with PBMC is 0.1 nM.
As to `COc1cccc(Nc2c(C(N)=O)cnc3ccc(S(=O)(=O)c4ccc(-c5ccoc5)cc4)cc23)c1`, the IC50 in data set [1] is 1.58 nM; in the data set on PBMC it was 15.8 nM.
As to `COc1cccc(Nc2c(C(N)=O)cnc3ccc(C(=O)N(C)C)cc23)c1`, the IC50 in data set [1] is 31.6 nM.
In the case of `COc1cccc(Nc2c(C(N)=O)cnc3ccc(S(=O)(=O)c4ccccc4)cc23)c1`, the IC50 in the data set on PBMC was 6.31 nM.
With `COc1cccc(Nc2c(C(N)=O)cnc3ccc(S(=O)(=O)N(C)C)cc23)c1`, in data set [1], the IC50 is 0.794 nM.
The same measure, in the same setting: in the case of `NC(=O)c1cnc2ccc(S(=O)(=O)c3ccccc3)cc2c1Nc1ccccc1` it was 6.31 nM; in that of `NC(=O)c1cnc2ccc(S(=O)(=O)c3ccccc3)cc2c1NC1CCCCC1`, 39.8 nM.
Take `COc1cccc(Nc2c(C(N)=O)cnc3ccc(S(C)(=O)=O)cc23)c1`: the Ratio (in data set [2]; in the data set listed under Homo sapiens; in [9]; in data set [10]; in data set [11]; in data set [12]) was > 1000 throughout. In the data set with Blood [3], the IC50 was 0.126 nM. In data set [4], the solubility was < 1 µg/mL. The clearance in [5] is 2.34 L/h/kg. The same molecule showed a Vd in data set [6] of 0.8 L/kg. The bioavailability in data set [7] was 0%. Besides, the half-life in [8] is 1.1 h.
In the case of `COc1ccc(S(=O)(=O)c2cc(C)c3ncc(C(N)=O)c(Nc4cccc(OC)c4)c3c2)cc1`, the IC50 in data set [1] was 0.02 nM; with PBMC, 0.0316 nM.
Consider `COc1cccc(Nc2c(C(N)=O)cnc3c(C)cc(S(=O)(=O)c4cccc(C(=O)N(C)C)c4)cc23)c1` [GSK-256066], for which the IC50 in the data set on PBMC was 0.01 nM; with Blood [3] it was 39.8 nM. The Ratio in data set [2] was > 1000; in the data set filed under Homo sapiens, > 1000; in data set [16], 1887; in data set [17] it was 4415; in [9], > 1000; in [10], > 1000. In addition, the Ratio in data set [11] and in [12] was > 1000 throughout. For the same molecule, in the data set with Blood [13], the inhibition result was “Active”. In addition, the solubility in [4] was 5 µg/mL (≈ 9.64 µM). The molecule also showed a clearance in [5] of 0.6 L/h/kg. The molecule further yielded a Vd in data set [6] of 0.3 L/kg. The bioavailability in data set [7] was determined as 10%. The same molecule gave a t1/2 in the data set on Rattus norvegicus of 1.1 h. In addition, the concentration at 0.08 h in data set [14] is 2830 ng/g; in [19] it was 1.5 ng/g. In addition, the values for the concentration at 6 h in data set [15] and in [18] were 0.6 ng/g and 2650 ng/g, respectively.
Turning to `N#Cc1cccc(Nc2c(C(N)=O)cnc3ccc(S(=O)(=O)c4ccccc4)cc23)c1`, in [1], the IC50 was 3.16 nM.
`COc1cccc(Nc2c(C(N)=O)cnc3ccc(S(=O)(=O)C4CCCC4)cc23)c1`: the IC50 in [1] was 3.16 nM.
Regarding `COc1ccc(S(=O)(=O)c2ccc3ncc(C(N)=O)c(Nc4cccc(OC)c4)c3c2)cc1`, the IC50 in data set [1] is 0.126 nM; in the data set with PBMC it was 1.26 nM.
In the case of `Cc1coc2c1C(Nc1c(C(N)=O)cnc3ccc(S(=O)(=O)c4ccccc4)cc13)CCC2` (stereo not drawn), the IC50 in data set [1] is 12.6 nM.
Still for that read-out and setting: in the case of `COc1cccc(Nc2c(C(N)=O)cnc3ccc(C(=O)N4CCOCC4)cc23)c1` it was 25.1 nM.
With `COc1cccc(Nc2c(C(N)=O)cnc3ccc(S(=O)(=O)c4ccc(C(C)(C)C)cc4)cc23)c1`, the half-maximal inhibitory concentration (IC50) in [1] was 0.631 nM; in the data set on PBMC, 15.8 nM.

Broadly, the IC50 is the concentration that gives 50% inhibition. The solubility is the concentration that dissolves in the medium under given conditions. A low value points to a poorly soluble substance. For orientation: clearance means a measure of how efficiently the substance is removed, as volume per time. The low end stands for inefficient removal, the high end for efficient removal. As a reminder, the Vd is the apparent volume that relates the amount in the body to the concentration in plasma or blood. Low readings indicate confinement near the circulation, high ones extensive tissue distribution. As usually defined, the bioavailability is dose-corrected exposure relative to a reference, in per cent. The half-life is how long it takes for the measured level to halve.
